The pIC50 is the IC50 on a negative log10 scale, so that one unit is a factor of ten. Low values mean a high IC50, high ones a low IC50. One may read the pKi as the Ki on a negative log10 scale, so that one unit is a factor of ten. Low values mean a large Ki, high ones a small Ki. As usually defined, the CC50 is the concentration that lowers cell viability or growth by half. Higher therefore signals better tolerance by the cells.

The text below walks through data of ChEMBL document CHEMBL5523693, “Exploration of the P1 residue in 3CL protease inhibitors leading to the discovery of a 2-tetrahydrofuran P1 replacement” (Bioorg Med Chem, 2024).

pIC50, pKi: −log10 of the molar value. Where a SMILES comes first, the peptide text is derived from it. [ ]: non-standard residue; d: D form. The star is where a group is joined. Phe(4-F) = N[C@@H](Cc1ccc(F)cc1)C(=O)O; Cbz = O=C(OCc1ccccc1)*

The target in data set [1] is Replicase polyprotein 1ab (Severe acute respiratory syndrome coronavirus 2, UniProt P0DTD1). The data set can be described thus: Inhibition of SARS-CoV-2 3CL protease by FRET assay.
Data set [2] concerns the target Replicase polyprotein 1ab (Severe acute respiratory syndrome coronavirus 2) (UniProt P0DTD1). Briefly: Binding affinity to SARS-CoV-2 3CL protease assessed as biphasic dissociation rate by measuring half life by jump dilution assay.
The target is the same in data set [3]. Briefly: Binding affinity to SARS-CoV-2 3CL protease assessed as monophasic dissociation rate by measuring half life by jump dilution assay.
Data set [4] deals with SARS-CoV-2. The data set can be described thus: microbe, parasite or virus in culture. The settings on record: Severe acute respiratory syndrome coronavirus 2, Vero, read-out: pEC50 (converted).
Description: Antiviral activity against SARS-CoV-2 infected in african green monkey Vero cells assessed as virus-induced cell death
Data set [5] in a line: Cytotoxicity against human MRC5 cells infected with […] inhibition of cell growth. It is filed as toxicity, cell-based.
Data set [6] can be described thus: cells. The settings on record: Betacoronavirus 1, MRC5, read-out: pEC50 (converted).
Description: Antiviral activity against SARS-CoV-2 OC43 infected in human MRC5 cells assessed as inhibition of bacterial growth
The nature of data set [7]: Permeability of compound in MDCK cells. As to conditions: dog, read-out: permeability. The class given is ADME, cell-based, Canis lupus familiaris.

As to `CC(C)C[C@H](NC(=O)[C@H](Cc1ccc(F)cc1)NC(=O)OCc1ccccc1)C(=O)N[C@@H](/C=C1\CCOC1=O)C[C@@H]1CCCO1`, in data set [1], the negative-log IC50 (pIC50) is less than 6.00.

`CC(C)C[C@H](NC(=O)[C@H](Cc1ccc(F)cc1)NC(=O)OCc1ccccc1)C(=O)N[C@H](/C=C1\CCOC1=O)C[C@@H]1CCNC1=O` had a pIC50 in data set [1] of 8.80. For the same molecule, the T1/2 in data set [2] worked out at 468 min.

Regarding `CC(C)C[C@H](NC(=O)[C@H](Cc1ccc(F)cc1)NC(=O)OCc1ccccc1)C(=O)N[C@@H](C[C@@H]1CCNC1=O)C(=O)C(=O)NC(C)C`, in data set [1], the negative-log IC50 (pIC50) was 8.30 and the negative logarithm of the Ki (pKi) was 8.30. For the same molecule, the T1/2 in data set [3] was found to be 18 min.

Consider `CC(C)C[C@H](NC(=O)[C@H](Cc1ccc(F)cc1)NC(=O)OCc1ccccc1)C(=O)N[C@@H](/C=C1\CCOC1=O)C[C@H]1CCCO1`, for which the pIC50 in data set [1] was less than 6.00.

Turning to `CC(C)C[C@H](NC(=O)[C@H](Cc1ccc(F)cc1)NC(=O)OCc1ccccc1)C(=O)N[C@H](/C=C1\CCOC1=O)C[C@@H]1CCCO1`, in data set [1], the pIC50 was 7.40. Besides, in data set [2], the T1/2 turned out to be 660 min. Besides, the EC50 in data set [4] was 15.8 µM.

`CC(C)C[C@H](NC(=O)[C@H](Cc1ccc(F)cc1)NC(=O)OCc1ccccc1)C(=O)N[C@H](/C=C1\CCOC1=O)C[C@H]1CCCO1`: in data set [1], the negative-log IC50 (pIC50) was 6.90. For the same molecule, the T1/2 in data set [3] was determined as 12 min. Further, in data set [4], the EC50 is 15.8 µM.

As for `CSCC[C@@H](C=O)NC(=O)[C@H](CC(C)C)NC(=O)[C@H](Cc1ccc(F)cc1)NC(=O)OCc1ccccc1` (Cbz-[Phe(4-F)]-Leu-Met-aldehyde), in data set [5], the CC50 is 3.98 µM. The molecule further showed a negative-log IC50 (pIC50) in data set [1] of 8.20. In addition, in data set [3], the T1/2 was less than 12 min. In addition, the values for the EC50 in data set [6] and in data set [4] were 1 µM and 1.26 µM, respectively.

In turn, `CC(C)C[C@H](NC(=O)[C@H](Cc1ccc(F)cc1)NC(=O)OCc1ccccc1)C(=O)NC(C=O)CCF` (mixture of isomers) gave a cytotoxic concentration (CC50) in data set [5] of 2 µM. This molecule had a negative logarithm of the IC50 (pIC50) in data set [1] of 6.20. The T1/2 in data set [3] was less than 12 min. The EC50 in data set [6] is more than 50.1 µM; in data set [4], 1 µM.

For the molecule `CC(C)C[C@H](NC(=O)[C@H](Cc1ccc(F)cc1)NC(=O)OCc1ccccc1)C(=O)NC(C=O)CC(F)F` (mixture of isomers), the CC50 in data set [5] was 1.58 µM. In data set [1], this molecule had a negative logarithm of the IC50 (pIC50) of 6.00. In addition, the T1/2 in data set [3] is less than 12 min. In addition, the EC50 is more than 1.58 µM in data set [6] and 1 µM in data set [4].

In turn, `CC(C)C[C@H](NC(=O)[C@H](Cc1ccc(F)cc1)NC(=O)OCc1ccccc1)C(=O)NC(/C=C1\CCOC1=O)CC1CCCO1` (mixture of isomers) showed a pIC50 in data set [1] of 6.80. The T1/2 in data set [3] was determined as 18 min.

Consider `CC(C)C[C@H](NC(=O)[C@H](Cc1ccc(F)cc1)NC(=O)OCc1ccccc1)C(=O)NC(C=O)Cc1ccccn1` (mixture of isomers), for which it took 10 µM to reach half-maximal cytotoxicity in data set [5] (CC50). This molecule had a negative logarithm of the IC50 (pIC50) in data set [1] of 7.90. For the same molecule, the T1/2 in data set [3] was 18 min. Besides, in data set [6], the EC50 was 1.58 µM.

In the case of `CC(C)C[C@H](NC(=O)[C@H](Cc1ccc(F)cc1)NC(=O)OCc1ccccc1)C(=O)NC(CC1CCCO1)C(=O)C(=O)NC(C)C` (mixture of isomers), the pIC50 in data set [1] was 6.70. Besides, in data set [3], the T1/2 turned out to be 12 min.

The molecule `CC(C)C[C@H](NC(=O)[C@H](Cc1ccc(F)cc1)NC(=O)OCc1ccccc1)C(=O)NC(C=O)CC(F)(F)F` (mixture of isomers) showed a CC50 in data set [5] of 1.26 µM. In addition, in data set [1], the pIC50 is less than 6.00. The EC50 in data set [6] is more than 1.26 µM; in data set [4] it was 0.631 µM.

In data set [5], `CC(C)C[C@H](NC(=O)[C@H](Cc1ccc(F)cc1)NC(=O)OCc1ccccc1)C(=O)NC(C=O)Cc1cccnc1` (mixture of isomers) had a half-maximal cytotoxic concentration (CC50) of 10 µM. The negative-log IC50 (pIC50) in data set [1] is less than 6.00. For the same molecule, the EC50 in data set [6] was more than 10 µM; in data set [4], 2 µM.

As to `CC(C)C[C@H](NC(=O)[C@H](Cc1ccc(F)cc1)NC(=O)OCc1ccccc1)C(=O)NC(C=O)Cc1ccc(F)cc1` (mixture of isomers), in data set [5], the 50% cytotoxic concentration (CC50) was 1.26 µM. The same molecule showed a pIC50 in data set [1] of 6.10. Further, the T1/2 in data set [3] was less than 12 min. For the same molecule, the EC50 in data set [6] is more than 1.26 µM; in data set [4] it was 2 µM.

`CC(C)C[C@H](NC(=O)[C@H](Cc1ccc(F)cc1)NC(=O)OCc1ccccc1)C(=O)NC(C=O)Cc1cncs1` (mixture of isomers): in data set [5], the cytotoxic concentration (CC50) is 2 µM. The negative logarithm of the IC50 (pIC50) in data set [1] is less than 6.00. Also, the EC50 in data set [6] was more than 50.1 µM.

Consider `CC(C)C[C@H](NC(=O)[C@H](Cc1ccc(F)cc1)NC(=O)OCc1ccccc1)C(=O)NC(C=O)Cc1ccncc1` (mixture of isomers), for which the midpoint of cytotoxicity in data set [5], the CC50, lay at 5.01 µM. The molecule further showed a pIC50 in data set [1] of less than 6.00. The EC50 in data set [6] is more than 5.01 µM; in data set [4] it was 0.631 µM.

On to `CC(C)C[C@H](NC(=O)[C@H](Cc1ccc(F)cc1)NC(=O)OCc1ccccc1)C(=O)NC(C=O)Cc1ccccc1F` (mixture of isomers), for which the cytotoxic concentration (CC50) in data set [5] is 1.26 µM. The negative-log IC50 (pIC50) in data set [1] was 8.50. For the same molecule, the values for the EC50 in data set [6] and in data set [4] were 0.398 µM and 1.58 µM, respectively. In data set [7], the Papp was determined as 5.27 ×10⁻⁶ cm/s. Besides, in data set [2], the T1/2 amounted to 414 min.

With `CC(C)C[C@H](NC(=O)[C@H](Cc1ccc(F)cc1)NC(=O)OCc1ccccc1)C(=O)NC(C=O)Cc1cccc(F)c1` (mixture of isomers), the CC50 in data set [5] is 0.794 µM. The negative logarithm of the IC50 (pIC50) in data set [1] was 6.20. Moreover, the T1/2 in data set [3] was less than 12 min. The EC50 in data set [6] is 0.794 µM; in data set [4], 2.51 µM.

For the molecule `CC(C)C[C@H](NC(=O)[C@H](Cc1ccc(F)cc1)NC(=O)OCc1ccccc1)C(=O)NC(C=O)Cc1ccco1` (mixture of isomers), the pIC50 in data set [1] was 6.90. Also, the T1/2 in data set [3] was less than 12 min. The EC50 in data set [4] is 5.01 µM.

For `CC(C)C[C@H](NC(=O)[C@H](Cc1ccc(F)cc1)NC(=O)OCc1ccccc1)C(=O)NC(C=O)Cc1c[nH]cn1` (mixture of isomers), in data set [5], the CC50 was more than 50.1 µM. For the same molecule, the negative logarithm of the IC50 (pIC50) in data set [1] is 7.80. Besides, in data set [3], the T1/2 was less than 12 min. For the same molecule, the EC50 was 25.1 µM in data set [6] and 3.98 µM in data set [4].

Take `CC(C)C[C@H](NC(=O)[C@H](Cc1ccc(F)cc1)NC(=O)OCc1ccccc1)C(=O)NC(C=O)C[C@@H]1CCNC1=O` (mixture of isomers): the cytotoxic concentration (CC50) in data set [5] is more than 50.1 µM. In data set [1], this molecule showed a pIC50 of 9.40. The EC50 in data set [6] was 3.16 µM; in data set [4] it was 1 µM. Further, the Papp in data set [7] came to 1.62 ×10⁻⁶ cm/s. Besides, the T1/2 in data set [2] is 840 min.

In turn, `CC(C)C[C@H](NC(=O)[C@H](Cc1ccc(F)cc1)NC(=O)OCc1ccccc1)C(=O)N[C@H](C=O)CC[S+](C)[O-]` (mixture of isomers) had a CC50 in data set [5] of more than 50.1 µM. In data set [1], the negative logarithm of the IC50 (pIC50) is 8.10. Also, the EC50 in data set [6] was more than 50.1 µM; in data set [4], 7.94 µM. Besides, the T1/2 in data set [2] amounted to 660 min.

As to `CC(C)C[C@H](NC(=O)[C@H](Cc1ccc(F)cc1)NC(=O)OCc1ccccc1)C(=O)NC(C=O)CC1CCCC1` (mixture of isomers), in data set [5], the midpoint of cytotoxicity, the CC50, lay at 10 µM. The pIC50 in data set [1] is 7.10. In addition, the T1/2 in data set [3] was less than 12 min. Also, the EC50 in data set [6] was 1 µM.

With `CC(C)C[C@H](NC(=O)[C@H](Cc1ccc(F)cc1)NC(=O)OCc1ccccc1)C(=O)NC(C=O)CC1CCCCO1` (mixture of isomers), in data set [5], the CC50 is more than 50.1 µM. The molecule further gave a negative logarithm of the IC50 (pIC50) in data set [1] of 7.40. Besides, in data set [3], the T1/2 worked out at 18 min. The EC50 in data set [4] was 2 µM.

The molecule `CC(C)C[C@H](NC(=O)[C@H](Cc1ccc(F)cc1)NC(=O)OCc1ccccc1)C(=O)NC(C=O)CC1CCCO1` (mixture of isomers) gave a CC50 in data set [5] of 10 µM. The molecule further showed a negative-log IC50 (pIC50) in data set [1] of 8.90. The EC50 is 0.316 µM in data set [6] and 2.51 µM in data set [4]. For the same molecule, the Papp in data set [7] turned out to be 9.56 ×10⁻⁶ cm/s. Further, the T1/2 in data set [2] stood at 660 min.

`COCCC(C=O)NC(=O)[C@H](CC(C)C)NC(=O)[C@H](Cc1ccc(F)cc1)NC(=O)OCc1ccccc1` (mixture of isomers): it took 10 µM to reach half-maximal cytotoxicity in data set [5] (CC50). In addition, the negative-log IC50 (pIC50) in data set [1] is 7.50. In data set [3], the T1/2 is less than 12 min. Besides, the EC50 in data set [6] was 1.26 µM; in data set [4], 1.58 µM.
